This is an account of results in a melting point compilation (Tetko et al.; mined from patent text by program, amines drawn as free bases though some values may be those of a salt).

Consider `CC(C)N(C=Nc1ncc(I)c(Cl)n1)C(C)C`, for which the melting point (in general, the temperature, or range, at which the solid turns liquid) lay within 97 to 100 °C. The compound `N#Cc1ccc(-c2cc3ccc(C#N)cc3[nH]2)cc1` gave a melting point of 270 to 275 °C.

The compound `CCCCP(CCCC)(CCCC)=C1CC(=O)OC1=O` gave a melting point of 70 °C. For `CCC1(C)CC(C)(C)c2cc(O)ccc21` (centres undefined), the melting point turned out to be 86 °C.

`CN1C(=O)C(C(=O)Nc2ccc(Cl)cc2)S(=O)(=O)c2ccccc21` (centres undefined) had a melting point of 220 to 222 °C. With `Cc1cc2c(-c3ccccc3)c(COS(C)(=O)=O)n(C)c(=O)c2cc1C`, the melting point lay in the range of 150 to 151 °C.

For the compound `COCCNC(=O)COc1ccc(C(=O)CN2CCN(c3ccncc3)CC2)cc1`, the melting point is 142 to 145 °C.

`COc1cc(C(=O)n2c3c(c4ccccc42)CC(C(=O)O)CC3)cc(OC)c1OC` (centres undefined) showed a melting point of 234 to 236 °C.

In turn, `COCOc1cccc(F)c1C=NO` returned a melting point of 102 to 104 °C. As for `O=C(/C=C/C=C(c1ccc(C(F)(F)F)cc1)c1ccc(C(F)(F)F)cc1)Nc1cccc2cnccc12`, the figure is 164 to 166 °C; as for `N[C@H]1CC[C@@H](n2ccc(-c3ccc(F)cc3)c2-c2ccncc2)CC1`, 163 to 164 °C; as for `CC1=C(C=O)COc2ccccc21`, 68 to 70 °C. Regarding `CCOc1ccc(Nc2ncc3c(n2)N(c2ccccc2)C(=O)N(c2c(Cl)cccc2Cl)C3)cc1`, the melting point is 224 to 226 °C.

`CC(C)(CO)NS(=O)(=O)c1cccc(NC(=O)c2cnn3c(C4CC4)cc(-c4ccc(C(F)(F)F)cc4)nc23)c1` registered a melting point of 228 to 230 °C. Regarding `CN1CCN(C(c2ccc(Cl)cc2)c2ccccc2C(=O)O)CC1` (centres undefined), the melting point is 144 to 150 °C.

Compound `COc1cc(C(=O)N2CC2C#N)cc(OC)c1OC` (centres undefined) registered a melting point of 86 to 89 °C. `CCc1ccc(NC(=O)c2cc(C(C)(C)C)ccc2S)cc1` showed a melting point of 150 to 151 °C.

Compound `CN(C)CCCCCCCOc1ccc2oc(-c3ccccc3)cc(=O)c2c1` showed a melting point of 90 to 91 °C. `COc1ccc(CCCNC(=O)N(C)O)cc1OC` had a melting point of 99 to 100 °C. `CC(N)Oc1cccc2c1ccn2S(=O)(=O)c1ccccc1F` (centres undefined) came in with a melting point of 147 to 150 °C.

The compound `COc1ccc(CCl)cc1OCc1nc(-c2ccco2)oc1C` had a melting point of 115 to 116 °C.

As to `Cc1nc(-c2cccnc2)sc1-c1ccnc(Nc2ccc(N3CCOCC3)c(Cl)c2)n1`, the melting point is 230 to 231 °C. `CCOC(=O)c1ccccc1N(CC(=O)OC(C)(C)C)C(=O)CNC(=O)Nc1cccc(C)c1` gave a melting point of 142 °C.

For `CC1(C)Nc2ncc(I)cc2N(Cc2cc(F)ccc2F)C1=O`, the melting point lay in the range of 198 to 201 °C. Compound `COCc1cnc2c(N)cccc2c1Cl` yielded a melting point of 107 °C. In the case of `Cc1cccc(-c2[nH]c(C(C)C)nc2-c2cccc(-c3ccc(NS(=O)(=O)C4CC4)cn3)c2)n1`, the melting point lay in the range of 133 to 136 °C. Then `CCCCCCCCCCCCCCCCCC(=O)N1CCN(c2cc(N3CCCC3)nc(N3CCCC3)n2)CC1`, with 102 to 104 °C; and `[O-][N+](=CCCc1ccccc1)C1CCCCC1`, with 97.2 °C; and `O=C(CCCCCBr)c1c[nH]c2ccccc12`, with 150 to 151 °C.

In turn, `COc1ccccc1N1CCN(NC(=O)c2ccc(Cl)c(S(N)(=O)=O)c2)CC1` registered a melting point of 232 to 235 °C. Compound `Cc1nn(-c2cccnc2)cc1C(=O)O` returned a melting point of 200 to 210 °C. In turn, `CC(C)C1C(C=C(Br)Br)=CC=CN1C12CC3CC(CC(C3)C1)C2` (centres undefined) yielded a melting point of 176 to 177 °C. Then `CC(C)c1cccc(C(C)C)c1N1C(=O)c2cccc3c(C(N)=O)ccc(c23)C1=O`, with 233 °C; and `O=C(C=CC=C(c1ccccc1)c1ccccc1)NCCCCCC(=O)NO`, with 167 to 169 °C; and `S=c1[nH]c2c(n1Nc1cccc(Cl)c1)CCCC2`, with 148 °C. In the case of `CNC1NC(=O)c2sccc2-n2cccc21` (centres undefined), the melting point was 146 °C. Then `CCCc1c(OCCCSc2ccc(C(=O)O)cn2)ccc(C(C)=O)c1O`, with 145 to 147 °C; and `COCOc1c(NC(=O)N(CCCCCC(=O)O)c2ccccc2)cc(OC)cc1C(C)(C)C`, with 109 to 111 °C. Regarding `O=C1c2cccc([N+](=O)[O-])c2C(=O)N1c1cccc2ccc(O)cc12`, the melting point lay in the range of 136 to 137 °C. In turn, `Cn1cc(-c2cccc(C(F)(F)F)c2)c(=O)c(C2CCCCC2)c1` gave a melting point of 174 to 175 °C. Turning to `Cc1nc2c3c(ccn2c1C)C(=O)[C@](O)(Cc1ccccc1)[C@@H](c1ccccc1)N3`, the melting point lay within 248 to 251 °C. Then `CN(C(=O)OC(C)(C)C)c1cc(Oc2ccc(-c3nnn(C(c4ccccc4)(c4ccccc4)c4ccccc4)n3)cc2)ccc1[N+](=O)[O-]`, with 161 to 163 °C. `FC(F)(F)c1cccc(-c2cc(C(F)(F)F)n3nccc3n2)c1` showed a melting point of 96 °C.

On to `O=CC=Cc1c(C2CC2)nc2ccccc2c1-c1ccc(F)cc1`, for which the melting point is 146 to 147 °C.

Compound `COC(=O)c1cccc2nc(SCCN3CCN(CCNC(=O)Nc4c(C(C)C)cccc4C(C)C)CC3)oc12` registered a melting point of 186 to 188 °C. `On1cc(-c2ccccc2)[nH]c1=S` yielded a melting point of 196 °C. In turn, `CCOC(=O)COc1ccc(NC(=O)c2ccc(C(C)(C)C)cc2)cc1` displayed a melting point of 119 to 122 °C. As to `CCOC(=O)C1=C(CSC(C)=O)NC=C(C(=O)OC)C1c1cccc(Cl)c1Cl` (single isomer, unassigned; (-)), the melting point was in the range of 155 to 157 °C. As to `CCc1sc2ccccc2c1C(=O)O`, the melting point came to 136 °C. As for `Nc1cc(Br)cc(OCCF)c1`, the melting point lay within 48.5 to 50 °C. As for `CCCCc1nc(O)cc(CC(=O)OC)n1`, the melting point was in the range of 83 to 85 °C. As for `CCCC(C)(C)c1nc(CC(=O)O)c(C)o1`, the melting point was 97 to 98 °C. `O=C(OCC1c2ccccc2-c2ccccc21)N1Cc2cccn2Cc2ccccc21` gave a melting point of 141 to 142 °C. `O=C(Nc1ccc(O)cc1[N+](=O)[O-])OCCCl` yielded a melting point of 170 °C. Turning to `O=C(c1ccccc1)c1ccc(SCC(O)CO)cc1` (centres undefined), the melting point is 86 to 88 °C. As for `COC(=O)Cc1ccc(OC(=S)N(C)C)cc1F`, the melting point was in the range of 113 to 114 °C. With `OCc1cccc2cccnc12`, the melting point lay within 74 to 75 °C.

With `Cc1c(N)ccc(Cc2ccc(N)c(C)c2C)c1C`, the melting point was 141 to 143 °C.

Consider `CCCCOc1ccccc1C(O)CNC(C)Cc1ccc(OC)c(OC)c1` (centres undefined), for which the melting point lay within 119 to 121 °C.

Take `CN(C)C1CCn2c1nc1cc(NC(=O)c3cc4cc(C(F)(F)F)ccc4n3Cc3cccc(F)c3)cnc12` (single isomer, unassigned; (-)): the melting point lay in the range of 203 to 205 °C. `CCCc1noc(-c2ccccc2)c1-c1ccc(S(N)(=O)=O)cc1` registered a melting point of 167 °C. As to `COc1ccc(C(=O)Nc2ccccc2)cc1NS(=O)(=O)c1cccc2cccnc12`, the melting point was in the range of 187 to 188 °C.

`Fc1ccc(Br)nc1Br` yielded a melting point of 47 to 48 °C. As for `COc1ccc2snnc2c1S(=O)(=O)Cl`, the figure is 131 to 134 °C.

Compound `CC(=O)NC(C)COC1CCC(c2cc3ccc(OCC4CC4)cc3o2)CC1` (centres undefined) had a melting point of 104 to 105 °C.

In turn, `COC(=O)c1sc(S(C)(=O)=O)cc1O` registered a melting point of 138 to 140 °C. `Oc1cc2c(cc1-c1nc3cc(-c4ccccc4)ccc3o1)oc1ccccc12` gave a melting point of 293 to 295 °C.

Regarding `COc1ccc(-c2ccnc3[nH]c4ccccc4c23)cc1`, the melting point was 208 to 210 °C.

`OC1CCCCC1c1ncc[nH]1` (centres undefined) returned a melting point of 133 to 134 °C. Compound `CC(=O)OC1CCC2(C)C(CCC3C4CCC(C(C)=O)C4(C)CC(=O)C32Cl)C1` (centres undefined) returned a melting point of 151 to 154 °C. Consider `CC(Nc1ccc2[nH]c(=O)oc2c1)C(=O)N1CCC(Cc2ccccc2)CC1` (centres undefined), for which the melting point is 91 °C. In turn, `CCCc1c(COc2ccc(Cc3nnn(CCCS(C)(=O)=O)n3)cc2)ccc(C(C)=O)c1O` came in with a melting point of 89 to 91 °C.

Regarding `CC(C)Oc1cc(COc2cc(CCC(=O)O)n(-c3ccccc3)n2)cc(COc2ccc(Cl)cc2Cl)c1`, the melting point lay within 108 to 110 °C. Regarding `COC1CC2C3CCC4=CC(=O)CCC4(C)C3(F)C(O)CC2(C)C1(OC(C)=O)C(=O)CCl` (centres undefined), the melting point fell in the range of 243 to 245 °C.

Take `CCCCCCCCCCCCCCSc1ccc(C(=O)O)s1`: the melting point fell in the range of 106 to 108 °C.

Compound `O=C1NC(=O)C(c2ccc(Oc3ccccc3)cc2)C(=O)N1` showed a melting point of over 240 °C.

For `CC(C)C(CO)NC(=O)c1nsc2ccc(-n3c(=O)cc(C(F)(F)F)n(C)c3=O)cc12` (centres undefined), the melting point is 120 °C. Then `C[C@@H]1OC(=O)[C@H]2[C@H]3O[C@H]([C@H]4CCCC[C@H]43)[C@@H]21`, with 148 to 149 °C.

`CC(=CCc1c(C)nc(N)nc1O)c1cc(Cl)ccc1Cl` yielded a melting point of over 250 °C. In turn, `COc1cc(-c2ncc(C(F)(F)F)cc2Cl)ccc1C#N` had a melting point of 135 to 137 °C. Turning to `Cc1cc(-c2ncn3c(C(F)(F)F)cc(-c4ccc(Br)cc4)nc23)ccn1`, the melting point is 249 °C. `Cc1cc(Cl)c2cc(O)ccc2n1` came in with a melting point of 233 °C.

Compound `Cc1ccccc1-n1c(CC(O)c2ccccc2)nc2ccccc2c1=O` (centres undefined) had a melting point of 119 °C.

`COC(=O)c1ccc(C=Cc2ccc([N+](=O)[O-])c(C#N)c2)cc1` returned a melting point of 266 to 269 °C.

`O=C(O)c1cccc(-c2ccc3c(c2)C(c2ccc(Cl)cc2Cl)CO3)c1` (centres undefined) displayed a melting point of 192 to 193 °C.

As to `CCC(=O)Nc1cc(-n2cccn2)nc(-c2ccc(Cl)o2)n1`, the melting point was in the range of 189 to 190 °C.

The compound `CC(C)S(=O)(=O)n1c(N)nc2ccc(C(=CCl)c3ccccc3)cc21` gave a melting point of 180 to 181 °C. Compound `CC(CO)(CO)NS(=O)(=O)c1cccc(NC(=O)c2cnn3c(C(F)(F)F)cc(-c4ccc(C(F)(F)F)cc4)nc23)c1` came in with a melting point of 248 °C. In turn, `CSc1ccc2cccc(CCNC(=O)C3CC3)c2c1` yielded a melting point of 96 to 98 °C.
